Results reported in patent US7595401B2, “Therapeutic compounds and their use in cancer” (Myriad Pharmaceuticals, Inc., priority 2006, dated 2009).
pIC50: −log10 of the molar value.

What follows are compounds tested on purified human Hsp90 (assay: Binding Assay: fluorescence polarization with BODIPY-labeled geldanamycin). Conditions: 5 μM compound, BODIPY-GM 10 nM, Hsp90 30 nM.
Outline: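 Fluorescence polarization competition with BODIPY-geldanamycin (10 nM final) and human Hsp90 (30 nM final) in HEPES-KOH pH 7.3 buffer with molybdate, NP-40, DTT; 2% DMSO, overnight at room temperature. Read 485/530 nm; percent inhibition from mP normalized to DMSO controls, fluorescent-compound points excluded.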

Row | SMILES | % Inhibition at 5 μM Compound Concentration [%]
1 | Nc1ncn(CCC2CCN(S(=O)(=O)C(F)(F)F)CC2)c2nc(Sc3cc4c(cc3Br)OCO4)nc1-2 [Example 388, 8-[(6-Bromo-1,3-benzodioxol-5-yl)thio]-3-(2-{1-[(trifluoromethyl)sulfonyl]piperidin 4-yl}ethyl)-3H-purin-6-amine] | 13
2 | CC(C)(C)OC(=O)N1CCC(=CCn2cnc(N)c3nc(Sc4cc5c(cc4Br)OCO5)nc2-3)CC1 [Example 389, tert-Butyl 4-(2-{6-amino-8-[(6-bromo-1,3-benzodioxol-5-yl)thio]-3H-purin-3-yl}ethylidene)piperidine-1-carboxylate] | 38
3 | CC(C)(C)OC(=O)N1CCC[C@H](CCn2cnc(N)c3nc(Sc4cc5c(cc4Br)OCO5)nc2-3)C1 [Example 393, tert-Butyl (3R)-3-(2-{6-amino-8-[(6-bromo-1,3-benzodioxol-5-yl)thio]-3H-purin-3-yl}ethyl)piperidine-1-carboxylate] | 0
4 | CC(C)(C)OC(=O)N1CCCC[C@@H]1CCn1cnc(N)c2nc(Sc3cc4c(cc3Br)OCO4)nc1-2 [Example 395, tert-Butyl (2R)-2-(2-{6-amino-8-[(6-bromo-1,3-benzodioxol-5-yl)thio]-3H-purin-3-yl}ethyl)piperidine-1-carboxylate] | 0
5 | Nc1ncn(CCC2CCCCN2S(=O)(=O)C(F)(F)F)c2nc(Sc3cc4c(cc3Br)OCO4)nc1-2 (stereo not shown) [Example 397, 8-[(6-Bromo-1,3-benzodioxol-5-yl)thio]-3-(2-{1-[(trifluoromethyl)sulfonyl]piperidin 2-yl}ethyl)-3H-purin-6-amine] | 1
6 | CC(=O)N1CCCC(CCn2cnc(N)c3nc(Sc4cc5c(cc4Br)OCO5)nc2-3)C1 (stereo not shown) [Example 401, 3-[2-(1-Acetylpiperidin-3-yl)ethyl]-8-[(6-bromo-1,3-benzodioxol-5-yl)thio]-3H-purin-6-amine] | 2
7 | Nc1ncn(CCC2CCCN(S(=O)(=O)C(F)(F)F)C2)c2nc(Sc3cc4c(cc3Br)OCO4)nc1-2 (stereo not shown) [Example 403, 8-[(6-Bromo-1,3-benzodioxol-5-yl)thio]-3-(2-{1-[(trifluoromethyl)sulfonyl]piperidin-3-yl}ethyl)-3H-purin-6-amine] | 14
8 | Nc1ncn(CCC2CCN(C(=O)OCc3ccccc3)CC2)c2nc(Sc3cc4c(cc3Br)OCO4)nc1-2 [Example 410, Benzyl 4-(2-{6-amino-8-[(6-bromo-1,3-benzodioxol-5-yl)thio]-3H-purin-3-yl}ethyl)piperidine-1-carboxylate] | 11
9 | CC(C)(C)OC(=O)N1CCCC1CCn1cnc(N)c2nc(Sc3cc4c(cc3Br)OCO4)nc1-2 (stereo not shown) [Example 412, tert-Butyl 2-(2-{6-amino-8-[(6-bromo-1,3-benzodioxol-5-yl)thio]-3H-purin-3-yl}ethyl)pyrrolidine-1-carboxylate] | 0
10 | CC(C)(C)OC(=O)N1CCC(CCn2cnc(N)c3nc(Sc4cc5c(cc4Br)OCO5)nc2-3)C1 (stereo not shown) [Example 413, tert-Butyl 3-(2-{6-amino-8-[(6-bromo-1,3-benzodioxol-5-yl)thio]-3H-purin-3-yl}ethyl)pyrrolidine-1-carboxylate] | 28
11 | CC(C)(C)OC(=O)N1CCCC[C@H]1CCn1cnc(N)c2nc(Sc3cc4c(cc3Br)OCO4)nc1-2 [Example 417, tert-Butyl (2S)-2-(2-{6-amino-8-[(6-bromo-1,3-benzodioxol-5-yl)thio]-3H-purin-3-yl}ethyl)piperidine-1-carboxylate] | 0
12 | CC(C)(C)OC(=O)N1CC[C@H](CCn2cnc(N)c3nc(Sc4cc5c(cc4Br)OCO5)nc2-3)C1 [Example 420, tert-Butyl (3S)-3-(2-{6-amino-8-[(6-bromo-1,3-benzodioxol-5-yl)thio]-3 H-purin-3-yl}ethyl)pyrrolidine-1-carboxylate] | 7

Same assay, conditions: BODIPY-GM 10 nM, Hsp90 30 nM

Row | SMILES | pIC50
13 | Nc1ncnc2c1nc(Sc1cc3c(cc1Br)OCO3)n2CCC1CCN(S(=O)(=O)C(F)(F)F)CC1 [Example 387, 8-[(6-Bromo-1,3-benzodioxol-5-yl)thio]-9-(2-{1-[(trifluoromethyl)sulfonyl]piperidin 4-yl}ethyl)-9H-purin-6-amine] | < 5.10
14 | CC(C)(C)OC(=O)N1CCC(=CCn2c(Sc3cc4c(cc3Br)OCO4)nc3c(N)ncnc32)CC1 [Example 390, tert-Butyl 4-(2-{6-amino-8-[(6-bromo-1,3-benzodioxol-5-yl)thio]-9H-purin-9-yl}ethylidene)piperidine-1-carboxylate] | 6.51
15 | CC(C)(C)OC(=O)N1CCC[C@@H](CCn2c(Sc3cc4c(cc3Br)OCO4)nc3c(N)ncnc32)C1 [Example 391, tert-Butyl (3S)-3-(2-{6-amino-8-[(6-bromo-1,3-benzodioxol-5-yl)thio]-9H-purin-9-yl}ethyl)piperidine-1-carboxylate] | 5.92
16 | CC(C)(C)OC(=O)N1CCC[C@H](CCn2c(Sc3cc4c(cc3Br)OCO4)nc3c(N)ncnc32)C1 [Example 392, tert-Butyl (3R)-3-(2-{6-amino-8-[(6-bromo-1,3-benzodioxol-5-yl)thio]-9H-purin-9-yl}ethyl)piperidine-1-carboxylate] | 5.54
17 | CC(C)(C)OC(=O)N1CCCC[C@@H]1CCn1c(Sc2cc3c(cc2Br)OCO3)nc2c(N)ncnc21 [Example 394, tert-Butyl (2R)-2-(2-{6-amino-8-[(6-bromo-1,3-benzodioxol-5-yl)thio]-9H-purin-9-yl}ethyl)piperidine-1-carboxylate] | 6.15
18 | Nc1ncnc2c1nc(Sc1cc3c(cc1Br)OCO3)n2CCC1CCCCN1S(=O)(=O)C(F)(F)F (stereo not shown) [Example 396, 8-[(6-Bromo-1,3-benzodioxol-5-yl)thio]-9-(2-{1-[(trifluoromethyl)sulfonyl]piperidin 2-yl}ethyl)-9H-purin-6-amine] | 6.09
19 | CC(C)(C)OC(=O)N[C@H]1CC[C@@H](CCn2c(Sc3cc4c(cc3Br)OCO4)nc3c(N)ncnc32)CC1 [Example 398, tert-Butyl [cis-4-(2-{6-amino-8-[(6-bromo-1,3-benzodioxol-5-yl)thio]-9H-purin-9-yl}ethyl)cyclohexyl]carbamate] | 6.85
20 | CC(C)(C)OC(=O)N[C@H]1CC[C@@H](CCn2cnc(N)c3nc(Sc4cc5c(cc4Br)OCO5)nc2-3)CC1 [Example 399, tert-Butyl [cis-4-(2-{6-amino-8-[(6-bromo-1,3-benzodioxol-5-yl)thio]-3H-purin-3-yl}ethyl)cyclohexyl]carbamate] | 6.02
21 | CC(=O)N1CCCC(CCn2c(Sc3cc4c(cc3Br)OCO4)nc3c(N)ncnc32)C1 (stereo not shown) [Example 400, 9-[2-(1-Acetylpiperidin-3-yl)ethyl]-8-[(6-bromo-1,3-benzodioxol-5-yl)thio]-9H-purin-6-amine] | 5.22
22 | Nc1ncnc2c1nc(Sc1cc3c(cc1Br)OCO3)n2CCC1CCCN(S(=O)(=O)C(F)(F)F)C1 (stereo not shown) [Example 402, 8-[(6-Bromo-1,3-benzodioxol-5-yl)thio]-9-(2-{1-[(trifluoromethyl)sulfonyl]piperidin 3-yl}ethyl)-9H-purin-6-amine] | 6.23
23 | COc1ccc(OC)c(Sc2nc3c(N)ncnc3n2CCC2=CC3CC(C2)C3(C)C)c1 (stereo not shown) [Example 405, 8-[(2,5-Dimethoxyphenyl)thio]-9-[2-(6,6-dimethylbicyclo[3.1.1]hept-2-en-3-yl)ethyl]-9H-purin-6-amine] | < 5.10
24 | CC1=NNC(=O)C1CCn1c(Sc2cc3c(cc2Br)OCO3)nc2c(N)ncnc21 (stereo not shown) [Example 406, 4-(2-{6-Amino-8-[(6-bromo-1,3-benzodioxol-5-yl)thio]-9H-purin-9-yl}ethyl)-5-methyl-2,4-dihydro-3H-pyrazol-3-one] | < 4.60
25 | COc1ccc(OC)c(Sc2nc3c(N)ncnc3n2CCC2C(=O)NN=C2C)c1 (stereo not shown) [Example 407, 4-(2-{6-Amino-8-[(2,5-dimethoxyphenyl)thio]-9H-purin-9-yl}ethyl)-5-methyl-2,4-dihydro-3H-pyrazol-3-one] | < 4.60
26 | Nc1ncnc2c1nc(Sc1cc3c(cc1Br)OCO3)n2CCC1CCN(C(=O)OCc2ccccc2)CC1 [Example 409, Benzyl 4-(2-{6-amino-8-[(6-bromo-1,3-benzodioxol-5-yl)thio]-9H-purin-9-yl}ethyl)piperidine-1-carboxylate] | 6.89
27 | CC(C)(C)OC(=O)N1CCCC1CCn1c(Sc2cc3c(cc2Br)OCO3)nc2c(N)ncnc21 (stereo not shown) [Example 414, tert-Butyl 2-(2-{6-amino-8-[(6-bromo-1,3-benzodioxol-5-yl)thio]-9H-purin-9-yl}ethyl)pyrrolidine-1-carboxylate] | 6.27
28 | CC(C)(C)OC(=O)N1CCC(CCn2c(Sc3cc4c(cc3Br)OCO4)nc3c(N)ncnc32)C1 (stereo not shown) [Example 415, tert-Butyl 3-(2-{6-amino-8-[(6-bromo-1,3-benzodioxol-5-yl)thio]-9H-purin-9-yl}ethyl)pyrrolidine-1-carboxylate] | 6.34
29 | CC(C)(C)OC(=O)N1CCCC[C@H]1CCn1c(Sc2cc3c(cc2Br)OCO3)nc2c(N)ncnc21 [Example 416, tert-Butyl (2S)-2-(2-{6-amino-8-[(6-bromo-1,3-benzodioxol-5-yl)thio]-9H-purin-9-yl}ethyl)piperidine-1-carboxylate] | 6.70
30 | CC(C)(C)OC(=O)N1CC[C@H](CCn2c(Sc3cc4c(cc3Br)OCO4)nc3c(N)ncnc32)C1 [Example 418, tert-Butyl (3R)-3-(2-{6-amino-8-[(6-bromo-1,3-benzodioxol-5-yl)thio]-9H-purin-9-yl}ethyl)pyrrolidine-1-carboxylate] | 6.52
31 | Nc1ncnc2c1nc(Sc1cc3c(cc1Br)OCO3)n2CCC1CCCN1C(=O)OCc1ccccc1 (stereo not shown) [Example 419, Benzyl 2-(2-{6-amino-8-[(6-bromo-1,3-benzodioxol-5-yl)thio]-9H-purin-9-yl}ethyl)pyrrolidine-1-carboxylate] | 5.54
